Values quoted from earlier work, collected in patent publication US20050288375A1, “Method and composition for treating neurodegenerative disorders” (Myriad Genetics, Incorporated, priority 2003, published 2005).

Experiments:
[1] = rofecoxib at 25 mg daily; naproxen in the same trial
[2] = system: brain cells after cerebral ischemia; settings: rats
[3] = not given; remark: listed apart in the source

SMILES | efficacy for treating AD [1] | side effects at high doses | also measured
COc1ccc2cc([C@H](C)C(=O)O)ccc2c1 [Naproxen] | failed to show efficacy |  | 
c1ccc(C2(N3CCCCC3)CCCCC2)cc1 [PCP, Phencyclidine] |  |  | destruction of brain cells after cerebral ischemia [2]: prevent the destruction of brain cells
COc1ccc2c(c1)[C@@]13CCCC[C@H]1[C@@H](C2)N(C)CC3 [dextromethorphan, (+)-3-methoxy-N-methylmorphinan] |  | drowsiness, nausea, and decreased coordination | 
CN1CC[C@]23CCCC[C@H]2[C@H]1Cc1ccc(O)cc13 [dextrorphan, (+)-3-hydroxy-N-methylmorphinan] |  | drowsiness, nausea, and decreased coordination | 
CC12CC3CC(C)(C1)CC(N)(C3)C2 [memantine, 1-amino-3,5-dimethyl adamantane] |  |  | efficacy in treating mild-to-moderate AD [3]: showed efficacy
CS(=O)(=O)c1ccc(C2=C(c3ccccc3)C(=O)OC2)cc1 [rofecoxib] | failed to show efficacy |  | 
